Values after ≈ are worked out from the molar mass of the structure shown.
Tests used:
Format in all cases: functional
[1] = tested on: Escherichia coli; assay: Compound was evaluated for antibacterial activity against Escherichia coli Neumann compared to imipenem
[2] = tested on: Staphylococcus; assay: Compound was evaluated for antibacterial activity against Staphylococcus 25470 compared to imipenem
[3] = tested on: Pseudomonas aeruginosa; assay: Compound was evaluated for antibacterial activity against Pseudomonas aeruginosa F 41 compared to imipenem
[4] = tested on: Providencia rettgeri; assay: Compound was evaluated for antibacterial activity against Proteus rettgeri 10007 compared to imipenem
[5] = tested on: Proteus vulgaris; assay: Compound was evaluated for antibacterial activity against Proteus vulgaris N6 compared to imipenem
[6] = tested on: Morganella morganii; assay: Compound was evaluated for antibacterial activity against Proteus morganii.932 compared to imipenem
[7] = tested on: Klebsiella; assay: Compound was evaluated for antibacterial activity against Klebsiella 57USA compared to imipenem
[8] = tested on: Enterobacter cloacae; assay: Compound was evaluated for antibacterial activity against Enterobacter cloacae 5744 compared to imipenem
[9] = tested on: Escherichia coli; assay: Compound was evaluated for antibacterial activity against Escherichia coli F14 compared to imipenem
[10] = tested on: Serratia; assay: Compound was evaluated for antibacterial activity against serratia 16001 compared to imipenem
[11] = tested on: Proteus mirabilis; assay: Compound was evaluated for antibacterial activity against Proteus mirabilis 1235 compared to imipenem
[12] = tested on: Serratia; assay: Compound was evaluated for antibacterial activity against serratia 16002 compared to imipenem
[13] = tested on: Staphylococcus aureus; assay: Compound was evaluated for antibacterial activity against Staphylococcus aureus 133 compared to imipenem
[14] = tested on: Klebsiella; assay: Compound was evaluated for antibacterial activity against Klebsiella 63 compared to imipenem
[15] = tested on: Staphylococcus; assay: Compound was evaluated for antibacterial activity against Staphylococcus 25455 compared to imipenem
[16] = tested on: Acinetobacter; assay: (§1) Compound was evaluated for antibacterial activity against Acinetobacter 14601 compared to imipenem
[17] = tested on: Staphylococcus aureus; assay: Compound was evaluated for antibacterial activity against Staphylococcus aurues 133 compared to imipenem
[18] = tested on: Staphylococcus; assay: Tested for antibacterial activity against Staphylococcus 25470 compared to imipenem
[19] = tested on: Enterobacter cloacae; assay: Compound was evaluated for antibacterial activity against Enterob. cl.5744 compared to imipenem
[20] = tested on: Acinetobacter sp.; assay: as §1

| SMILES | MIC [1] | MIC [2] | MIC [3] | MIC [4] | MIC [5] | MIC [6] | MIC [7] | MIC [8] | MIC [9] | MIC [10] | MIC [11] | MIC [12] | MIC [13] | MIC [14] | MIC [15] | MIC [16] | MIC [17] | MIC [18] | MIC [19] | MIC [20] |
| --- | --- | --- | --- | --- | --- | --- | --- | --- | --- | --- | --- | --- | --- | --- | --- | --- | --- | --- | --- | --- |
| C[C@@H](O)[C@H]1C(=O)N2C(C(=O)[O-])=C3c4ccccc4SC[C@@H]3[C@H]12.[Na+] | 0.5 µg/mL | 8 µg/mL | 128 µg/mL | 2 µg/mL | < 0.25 µg/mL | 1 µg/mL | 4 µg/mL | 4 µg/mL | 8 µg/mL | 8 µg/mL | < 0.25 µg/mL | 16 µg/mL | < 0.25 µg/mL | 2 µg/mL | < 0.25 µg/mL | 4 µg/mL | – | – | – | – |
| C[C@@H](O)[C@H]1C(=O)N2C(C(=O)[O-])=C3c4ccsc4CC[C@@H]3[C@H]12.[Na+] | 1 µg/mL | 32 µg/mL | 128 µg/mL | 4 µg/mL | < 0.25 µg/mL | 2 µg/mL | 4 µg/mL | 8 µg/mL | 8 µg/mL | 32 µg/mL | 1 µg/mL | 32 µg/mL | – | 4 µg/mL | 1 µg/mL | 16 µg/mL | 1 µg/mL | – | – | – |
| C[C@@H](O)[C@H]1C(=O)N2C(C(=O)[O-])=C3c4ccccc4CCC[C@@H]3[C@H]12.[Na+] | 2 µg/mL | – | 128 µg/mL | 16 µg/mL | 1 µg/mL | 16 µg/mL | 1 µg/mL | 32 µg/mL | 16 µg/mL | 64 µg/mL | 0.5 µg/mL | 64 µg/mL | 0.5 µg/mL | 16 µg/mL | 0.5 µg/mL | 64 µg/mL | – | 128 µg/mL | – | – |
| C[C@@H](O)[C@H]1C(=O)N2C(C(=O)O)=C(SCCNC=N)C[C@H]12 [IMIPENEM ANHYDROUS] | < 0.25 µg/mL | 32 µg/mL (≈ 107 µM) | 2 µg/mL (≈ 6.68 µM) | 2 µg/mL (≈ 6.68 µM) | 0.5 µg/mL (≈ 1.67 µM) | 0.5 µg/mL (≈ 1.67 µM) | < 0.25 µg/mL | – | < 0.25 µg/mL | < 0.25 µg/mL | 4 µg/mL (≈ 13.4 µM) | 0.5 µg/mL (≈ 1.67 µM) | < 0.25 µg/mL | < 0.25 µg/mL | < 0.25 µg/mL | – | – | – | 0.5 µg/mL (≈ 1.67 µM) | < 0.25 µg/mL |
